For one experiment, the target named is T1, Human recombinant renin (Homo sapiens, UniProt P00797).
T1 construct: purchased Proteos
T1 sequence (P00797 67-406): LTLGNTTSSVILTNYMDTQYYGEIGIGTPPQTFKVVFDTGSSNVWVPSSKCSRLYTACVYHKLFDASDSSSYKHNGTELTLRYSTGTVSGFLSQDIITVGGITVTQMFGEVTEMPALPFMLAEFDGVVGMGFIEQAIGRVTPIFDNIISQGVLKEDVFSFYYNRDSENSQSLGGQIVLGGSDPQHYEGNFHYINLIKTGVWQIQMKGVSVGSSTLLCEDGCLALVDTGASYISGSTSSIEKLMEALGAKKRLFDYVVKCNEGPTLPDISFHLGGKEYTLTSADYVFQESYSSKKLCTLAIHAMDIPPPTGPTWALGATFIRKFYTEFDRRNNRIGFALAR
The experiment can be described thus: Inhibition of human recombinant renin (QFRET, buffer). In kind it is biochemical. Particulars: buffer: 50 mM MOPS pH 7.4, 100 mM NaCl, 0.002% Tween 20; 37° C., 3 hours. The method, then: Inhibition of Human Recombinant Renin
Human recombinant renin (Proteos) in 50 mM MOPS pH 7.4, 100 mM NaCl, 0.002% Tween 20 at a final concentration of […] is incubated with inhibitors from a 50 fold concentrated DMSO solution and 6 μM of an internally-quenched fluorescent peptide: DNP-[…]D,L-Amp (SEQ ID NO: 1); Paschalidou K. et al., Biochem J., 2004, 382, 1031). The reactions take place in a Costar 384 well black plate (#3573) at 37° C. for 3 hours. Fluorescence is measured at times 0 and 3 hours with a SpectraMax Gemini EM reader set at an excitation wavelength of 328 nm and at an emission wavelength of 388 nm. Background fluorescence at t=0 is subtracted from the measurement at t=3 hours. Inhibitory activity of the compounds is expressed as IC50.

Experiment [1] has as its target T2, recombinant renin in human plasma (Homo sapiens, UniProt P00797).
T2 construct: purchased Proteos
T2 sequence (P00797 67-406): T1 sequence (P00797 67-406)
The experiment can be described thus: Inhibition of renin in human plasma (QFRET, plasma). It is filed as biochemical. Particulars: human EDTA plasma with 1 nM recombinant renin added; 37° C., 1 hour. The method, then:
Inhibition of Renin in Human Plasma
Human EDTA-collected plasma is rapidly thawed in warm water and centrifuged at 2900 g for 15 minutes at 4° C. The supernatant is collected and recombinant renin (Proteos) is added at a final concentration of 1 nM. The plasma is transferred to a Costar black 384 well plate (#3573). Renin inhibitors are added from a 17.5 fold concentrated DMSO solution and pre-incubated at 37° C. for 10 minutes. The internally-quench fluorescent peptide QXL520™-[…](5-FAM) (Anaspec), SEQ ID NO: 2, is diluted in 3M Tris pH 7.2, 200 mM EDTA and added to the plasma. The final concentrations are: 6 μM substrate, 342 mM Tris, 23 mM EDTA. The plate is incubated at 37° C. for 1 hour. The plate is read in a SpectraMax Gemini EM reader set at an excitation wavelength of 490 nm and an emission wavelength of 520 nm at times 0 and 1 hour. Background fluorescence at t=0 is subtracted from the measurement at t=1 hour. Inhibitory activity of the compounds is expressed as IC50.

For `CC(=O)NCCc1ccccc1-c1noc([C@H]2CNCC[C@]2(O)c2ccc(F)c(F)c2)c1Br` [Structure 76], the IC50 at Human recombinant renin is 0.36 nM; in experiment [1], 1.6 nM.

In the case of `Fc1ccc([C@@]2(F)CCNC[C@@H]2c2onc(-c3cccc(Cl)c3Cl)c2Br)cc1F` [Structure 77], the IC50 at Human recombinant renin amounted to 0.25 nM; in experiment [1], 7.9 nM.

Regarding `CC(O)c1c([C@H]2CNCC[C@]2(O)c2ccc(F)c(F)c2)noc1-c1c(Cl)cccc1Cl` (stereo partly shown) [Structure 78], the IC50 came out at 1.8 nM on Human recombinant renin and 24 nM in experiment [1].

As to `O[C@]1(c2ccc(F)c(F)c2)CCNC[C@@H]1c1cc(-c2c(Cl)cccc2Cl)on1` [Structure 79], the concentration for half-maximal inhibition (IC50) was 1330 nM at Human recombinant renin and > 28000 nM in experiment [1].

As for `CC(=O)NCCc1ccccc1-c1onc([C@H]2CNCC[C@]2(O)c2ccc(F)c(F)c2)c1Br` [Structure 80], the results for the IC50 (at Human recombinant renin; in experiment [1]) were 0.23 nM and 0.6 nM, respectively.

Regarding `CC(=O)NCCc1ccccc1-c1onc([C@H]2CNCC[C@]2(F)c2ccc(F)c(F)c2)c1Br` [Structure 81], the results for the IC50 (on Human recombinant renin; in experiment [1]) were 0.053 nM and 0.44 nM, respectively.

Turning to `CO[C@]1(c2ccc(F)c(F)c2)CCNC[C@@H]1c1noc(-c2ccccc2CCNC(C)=O)c1Br` [Structure 82], the IC50 was determined as 0.16 nM on Human recombinant renin and 1.2 nM in experiment [1].

Consider `CC(=O)NCCc1ccccc1-c1onc([C@H]2CNCC[C@]2(O)c2ccc(F)c(F)c2)c1C(C)=O` [Structure 83], for which the IC50 on Human recombinant renin turned out to be 2.8 nM; in experiment [1], 4.2 nM.

As for `COC(=O)NCCc1ccccc1-c1onc([C@H]2CNCC[C@]2(O)c2ccc(F)c(F)c2)c1C(C)=O` [Structure 84], the IC50 on Human recombinant renin was determined as 10 nM; in experiment [1] it was 93 nM.

For `CC(=O)NCCc1ccccc1-c1onc([C@H]2CNCC[C@]2(O)c2ccc(F)c(F)c2)c1C(C)O` (stereo partly shown) [Structure 85], the values for the half-inhibitory concentration (IC50) (at Human recombinant renin; in experiment [1]) were 4.3 nM and 4.5 nM, respectively.

For the compound `CC(=O)NCCc1cc(F)ccc1-c1onc([C@H]2CNCC[C@]2(O)c2ccc(F)c(F)c2)c1Br` [Structure 86], the half-inhibitory concentration (IC50) at Human recombinant renin was determined as 0.14 nM; in experiment [1], 0.68 nM.

Take `CC(=O)NCCc1c(F)cccc1-c1onc([C@H]2CNCC[C@]2(O)c2ccc(F)c(F)c2)c1Br` [Structure 87]: the IC50 at Human recombinant renin was found to be 0.16 nM; in experiment [1], 0.62 nM.

With `O=C(CO)NCCc1ccccc1-c1onc([C@H]2CNCC[C@]2(O)c2ccc(F)c(F)c2)c1Br` [Structure 88], the IC50 is 0.38 nM on Human recombinant renin and 1 nM in experiment [1].

As to `COC[C@H](C)COCc1ccc([C@@]2(O)CCNC[C@@H]2c2noc(-c3ccccc3CCNC(C)=O)c2Br)cc1` [Structure 89], the IC50 on Human recombinant renin came to 0.32 nM; in experiment [1], 1.2 nM.

Take `CC(=O)NCCc1ccccc1-c1onc([C@H]2CNCC[C@]2(OCc2c[nH]nn2)c2ccc(F)c(F)c2)c1Br` [Structure 90]: the IC50 at Human recombinant renin turned out to be 0.63 nM; in experiment [1] it was 4.4 nM.

Regarding `O[C@]1(c2ccc(F)c(F)c2)CCNC[C@@H]1c1cn(-c2ccc(F)cc2Br)nn1` [Structure 91], the IC50 amounted to 2900 nM on Human recombinant renin and 9470 nM in experiment [1].

In the case of `Cn1c(-c2ccccc2)cnc1[C@H]1CNCC[C@]1(O)c1ccc(F)c(F)c1` [Structure 92], the IC50 at Human recombinant renin is 1990 nM; in experiment [1] it was > 28000 nM.

Turning to `C[C@H]1C[C@H](c2ccc(F)c(F)c2)[C@@H](c2nnc(-c3cccc(Cl)c3Cl)n2C2CC2)CN1` [Structure 93], the figures for the concentration for half-maximal inhibition (IC50) (at Human recombinant renin; in experiment [1]) were 0.14 nM and 0.62 nM, respectively.

Regarding `CC(=O)NCCc1ccccc1-c1nnc([C@H]2CN[C@@H](C)C[C@@H]2c2ccc(F)c(F)c2)n1C1CC1` [Structure 94], the IC50 on Human recombinant renin turned out to be 1.5 nM; in experiment [1], 3 nM.

For the compound `Fc1ccc([C@H]2CCNC[C@@H]2c2nnc(-c3cccc(Cl)c3Cl)n2C2CC2)cc1F` [Structure 95], the values for the IC50 (at Human recombinant renin; in experiment [1]) were 0.15 nM and 0.65 nM, respectively.

On to `CC(=O)NCCc1ccccc1-c1onc([C@H]2CN[C@@H](C)C[C@@H]2c2ccc(F)c(F)c2)c1Br` [Structure 96], for which the IC50 at Human recombinant renin is 0.7 nM; in experiment [1], 2.8 nM.

Consider `CC(=O)NCCc1cccnc1-c1onc([C@H]2CNCC[C@]2(O)c2ccc(F)c(F)c2)c1Br` [Structure 97], for which the IC50 at Human recombinant renin amounted to 10 nM; in experiment [1], 89 nM.

As for `COCCC[C@H](CNC(C)=O)c1ccccc1-c1onc([C@H]2CNCC[C@]2(O)c2ccc(F)c(F)c2)c1Br` [Structure 98], the values for the IC50 (on Human recombinant renin; in experiment [1]) were 0.58 nM and 2.2 nM, respectively.

For `COCCC[C@@H](CNC(C)=O)c1ccccc1-c1onc([C@H]2CNCC[C@]2(O)c2ccc(F)c(F)c2)c1Br` [Structure 100], the IC50 came to 1.2 nM on Human recombinant renin and 3.9 nM in experiment [1].

In the case of `COCCCc1ccc(-c2onc([C@H]3CNCC[C@]3(O)c3ccc(F)c(F)c3)c2Br)c(CCNC(C)=O)c1` [Structure 102], the results for the IC50 (at Human recombinant renin; in experiment [1]) were 0.27 nM and 1.1 nM, respectively.

In the case of `CC(=O)NCCc1ccccc1-c1onc([C@H]2CNCC[C@]2(O)c2ccc(F)c(F)c2)c1Cl` [Structure 104], the IC50 is 0.7 nM at Human recombinant renin and 1.9 nM in experiment [1].

`CC(=O)NCCc1ccccc1-c1onc([C@H]2CNCC[C@]2(O)c2ccc(C)c(F)c2)c1Br` [Structure 105]: the figures for the IC50 (at Human recombinant renin; in experiment [1]) were 4.9 nM and 29 nM, respectively.

In the case of `CC(=O)NCCc1ccccc1-c1onc([C@H]2CNCC[C@@H]2c2ccc(F)c(F)c2)c1Br` [Structure 107], the values for the IC50 (at Human recombinant renin; in experiment [1]) were 0.26 nM and 1.2 nM, respectively.

As to `COCCCC(CNC(C)=O)c1ccccc1-c1onc([C@H]2CNCC[C@@H]2c2ccc(OCCOc3c(Cl)cc(C)cc3Cl)cc2)c1Br` (stereo partly shown) [Structure 108], the values for the IC50 (at Human recombinant renin; in experiment [1]) were 0.07 nM and 2 nM, respectively.

Take `CC(=O)NCCc1ccccc1-c1onc([C@H]2CNCC[C@@H]2c2ccc(OCCOc3c(Cl)cc(C)cc3Cl)cc2)c1C(C)O` (stereo partly shown) [Structure 109]: the IC50 turned out to be 0.07 nM at Human recombinant renin and 1.2 nM in experiment [1].

Turning to `CC(=O)NCCc1ccccc1-c1onc([C@H]2CNCC[C@@H]2c2ccc(OCCOc3c(Cl)cc(C)cc3Cl)cc2)c1C(C)=O` [Structure 110], the results for the IC50 (on Human recombinant renin; in experiment [1]) were 0.09 nM and 1.2 nM, respectively.

Consider `CC(=O)NCCc1ccccc1-c1onc([C@H]2CNCC[C@@H]2c2ccc(OCCOc3c(Cl)cc(C)cc3Cl)cc2)c1Br` [Structure 111], for which the IC50 on Human recombinant renin is < 0.05 nM; in experiment [1], 1.2 nM.

`CC(=O)NCCc1ccccc1-c1onc([C@H]2CNCC[C@]2(O)c2ccc(COCC(F)(F)COC(C)C)cc2)c1Br` [Structure 112]: the IC50 at Human recombinant renin is 0.44 nM; in experiment [1], 1.7 nM.

Take `CCOCC(F)(F)COCc1ccc([C@@]2(O)CCNC[C@@H]2c2noc(-c3ccccc3CCNC(C)=O)c2Br)cc1` [Structure 114]: the values for the IC50 (at Human recombinant renin; in experiment [1]) were 0.19 nM and 0.58 nM, respectively.

For the compound `CC(=O)NCCc1ccccc1-c1onc([C@H]2CNCC[C@]2(O)c2ccc(COCCOC(C)C)cc2)c1Br` [Structure 115], the IC50 at Human recombinant renin stood at 6.5 nM; in experiment [1] it was 16 nM.

As to `CC(=O)NCCc1ccccc1-c1onc([C@H]2CNCC[C@]2(OCC(O)CO)c2ccc(F)c(F)c2)c1Br` (stereo partly shown) [Structure 117], the IC50 was determined as 0.37 nM on Human recombinant renin and 1.4 nM in experiment [1].

As to `CC(=O)NCCc1ccccc1-c1onc([C@H]2CNCC[C@]2(OC(N)=O)c2ccc(F)c(F)c2)c1Br` [Structure 118], the IC50 stood at 0.22 nM at Human recombinant renin and 0.55 nM in experiment [1].

`COC[C@H](C)COCc1ccc([C@@]2(O)CCNC[C@@H]2c2cnc(-c3ccccc3CCNC(C)=O)cc2C)cc1` [Structure 119]: the IC50 was found to be 0.15 nM at Human recombinant renin and 3.6 nM in experiment [1].

Consider `COCC(F)(F)COCc1ccc([C@@]2(O)CCNC[C@@H]2c2ccc(-c3ccccc3CCNC(C)=O)cc2C)cn1` [Structure 120], for which the IC50 on Human recombinant renin is 0.66 nM; in experiment [1], 1.2 nM.

Consider `COCC(F)(F)COCc1ccc([C@@]2(O)CCNC[C@@H]2c2ccc(-c3ccccc3CCNC(C)=O)cc2C)cc1` [Structure 121], for which the IC50 at Human recombinant renin was found to be 0.08 nM; in experiment [1], 0.32 nM.

For the compound `CCOCC(F)(F)COCc1ccc([C@@]2(O)CCNC[C@@H]2c2ccc(-c3ccccc3CCNC(C)=O)cc2C)cc1` [Structure 122], the values for the IC50 (at Human recombinant renin; in experiment [1]) were 0.09 nM and 0.43 nM, respectively.

(Values after patent US20120035214A1, “RENIN INHIBITORS” (Merck Canada Inc., priority 2009, published 2012).)
